Experimental data as given in patent US9958439B2, “Carbohydrate detection” (RICHTER LIFE SCIENCE DEVELOPMENT AB, priority 2012, dated 2018).
Like-named read-outs stand apart in the source and are kept apart here.

Columns and labels:
[1] = tested on: biofilm of S. enteritidis wt strain 3934 and isogenic mutants ΔbscA, ΔcsgA, ΔcsgD; assay: LCO assay for fluorescence confocal analysis of biofilm and biofilm morphology; type: cell-based, Salmonella enteritidis; settings: for fluorescent signal from the LCO on biofilm versus phase contrast microscopy: 2 μg/ml LCO, fixed and washed cover-slip biofilm
From the text: Fluorescence confocal analysis (left side) and phase contrast analysis (right side) of the same slide are shown side by side.
Glass cover-slips were introduced to the wells of a 6-well plate (according to the set-up shown in FIG. 2A) to provide surfaces for biofilm formation, which at the end of experiment could be easily removed for microscope analysis. To prepare for the biofilm experiment, individual cultures of S. enteritidis wt strain 3934 and isogenic mutants ΔbscA, ΔcsgA, and ΔcsgD were grown in LB medium in flasks overnight. Each culture was diluted 100-fold in fresh LB and cultivated in a shaking incubator (230 rpm) at 37° C. to OD600=0.6. Cultures were diluted to a culture density of 10^5 CFU/ml in LB without salt and dispensed into the cover-slip containing 6 well plates in 8 ml aliquots. After incubating the plates for 48 h at 28° C., glass cover-slips were removed and washed twice with PBS before fixation in 4 ml of 4% formaldehyde for 1 h. […] PBS functioned as the negative control, used to assess the level of auto-fluorescence. Treated slides were then washed twice with PBS and mounted with Vectashield® for fluorescence-based confocal laser scanning microscopy analysis. Specifically, the edge of the biofilm formed at the liquid air interface was visualized using the appropriate fluorescence filters. […] The right side is an overlay of an optical inspection of bacterial presence by phase contrast with LCO fluorescence. Phase contrast is a traditional method for visual confirmation of biofilm attachment on surfaces.

[2] = tested on: biofilm (curli, cellulose) of S. enteritidis 3934 wt and isogenic mutants; assay: Real time tracking of biofilm formation with h-FTAA; type: cell-based, Salmonella enteritidis; settings: 2 μg/ml in culture, curli Ex 405/Em 556 nm, cellulose Ex 500/Em 600 nm, hourly over 48 h
Protocol: A) comparison of OD600 (. . . ) against GFP signal (_) of a wt biofilm culture over 48 hours; B) correlation of OD600 against GFP signal; […].
The turbidity of a bacterial culture, measured by absorbance at OD600, is used to define culture density. Expression of GFP provides a direct representation of bacterial growth and culture density. S. enteritidis 3934 wt and isogenic mutants ΔbscA, ΔcsgA, and ΔcsgD were transformed with the plasmid P2777 which carries the gfp gene for a more direct representation of culture density through fluorescence detection. […] […]. RFU data of GFP and h-FTAA from the four plates were combined in a single plot to visualize the hourly change in signals over time.

[3] = for RFU change (Correlation analysis) / RFU change (Signal deviation with increasing [Carbohydrate]) / λmax change: 3 μM probe; for RFU change (Correlation analysis): probe-specific excitation λ, emission 545 nm; for RFU change (Signal deviation with increasing [Carbohydrate]) / λmax change: spectral analysis, Excitation 300-500, Emission 545; for carbohydrate can be detected and/or differentiated by the LCO: conclusion from change in signal magnitude and/or shift in λmax; for Gradient Parameters (gradient of regression line) / Linear relationship / Quality of Gradient: linear regression
Summary of the method: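 Each LCO probe at 3 μM was added to two-fold serial dilutions of carbohydrate in dH2O (10–0.039 mg/ml for β-1,3-glucan, cellulose, chitin; 5–0.019 mg/ml for the others), run in triplicate. Excitation spectra were scanned 300–500 nm with emission at 545 nm. Detection was a reproducible λmax and/or RFU shift versus negative control, with linear regression of RFU against concentration.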

[4] = Summary of the method: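 LCO probes (3 μM) were added to serial two-fold dilutions of carbohydrate suspensions in dH2O, with excitation scanned 300–500 nm and emission at 545 nm. Detection was a reproducible λmax and/or RFU change versus no-carbohydrate control. RFU was regressed linearly against concentration at the λmax or the lowest-background excitation.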
[5] = remark: listed apart in the source
Summary of the method: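 LCO probes at 3 μM mixed with serial two-fold carbohydrate dilutions in water (10–0.039 or 5–0.019 mg/ml), run in triplicate. Excitation scanned 300–500 nm with emission at 545 nm; detection based on reproducible λmax or RFU shift against the no-carbohydrate control, with linear regression of RFU on concentration.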

[6] = for RFU change (Correlation analysis): probe-specific excitation λ, emission 545 nm
Summary of the method: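 LCO probes at 3 μM mixed with serial two-fold dilutions of carbohydrate in dH2O (10–0.039 or 5–0.019 mg/ml, depending on carbohydrate), in triplicate. Excitation scanned 300–500 nm or fixed per probe (λmax or lowest background), emission at 545 nm. Detection taken as reproducible λmax/RFU shift vs no-carbohydrate control; RFU regressed linearly on concentration.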

[7] = for RFU change (Correlation analysis): probe-specific excitation λ, emission 545 nm; for carbohydrate can be detected and/or differentiated by the LCO: conclusion from change in signal magnitude and/or shift in λmax; for Gradient Parameters (gradient of regression line) / Linear relationship / Quality of Gradient: linear regression
Summary of the method: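 LCO probes at 3 μM mixed with serial twofold carbohydrate dilutions in dH2O (10–0.039 or 5–0.019 mg/ml, depending on carbohydrate). Excitation scanned 300–500 nm, emission read at 545 nm; detection defined as reproducible shift in λmax and/or RFU relative to negative control, with linear regression of RFU against concentration.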

[8] = remark: listed apart in the source
Summary of the method: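 3 μM of each LCO probe was added to serial two-fold carbohydrate dilutions in water (10–0.039 or 5–0.019 mg/ml). Excitation spectra were scanned 300–500 nm with emission at 545 nm, in triplicate. Detection was defined as a reproducible shift in λmax and/or RFU versus negative control, with linear regression of RFU against concentration.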

[9] = tested on: biofilm (curli, cellulose) of S. enteritidis wt strain 3934 and isogenic mutants; settings: 2 μg/ml LCO, unprocessed cultures, excitation 300-500 nm, emission 545 nm
Protocol: A fresh overnight culture of the clinically derived S. enteritidis wt strain 3934 and isogenic mutants (ΔbscA; ΔcsgA and ΔcsgD) was inoculated into fresh LB and cultivated at 37° C. to OD600=0.6. […] 50 μl of each culture was next inoculated in triplicates into separate wells of 96-well plates and incubated at 28° C. for 48 hours.
After removing the biofilm cultures from the incubator, no processing steps were implemented before the detection of LCO signals. […] Emission spectra for curli bound LCOs was collected by reading the emission signal between 500-700 nm when the sample was excited at 405 nm. Emission spectra for cellulose bound LCOs was collected by reading the emission signal between 520-700 nm when the sample was excited at 500 nm.

[10] = β-1,3-glucan concentration vs RFU
[11] = Sodium alginate 5-0.019 mg/ml, 3 μM probe, spectral analysis, Excitation 300-500, Emission 545
[12] = sodium alginate concentration vs RFU, linear regression
[13] = glucose concentration vs RFU, linear regression
[14] = Cellulobiose 5-0.019 mg/ml, 3 μM probe, spectral analysis, Excitation 300-500, Emission 545
[15] = amylose concentration vs RFU, linear regression
[16] = cellulobiose concentration vs RFU, linear regression
[17] = Glycogen 5-0.019 mg/ml, 3 μM probe, spectral analysis, Excitation 300-500, Emission 545
[18] = Chondroitin Sulfate A 5-0.019 mg/ml, 3 μM probe, spectral analysis, Excitation 300-500, Emission 545
[19] = Chondroitin Sulfate A concentration vs RFU, linear regression

Compound: O=C(O)Cc1cc(-c2ccc(-c3ccc(C(=O)O)s3)s2)sc1-c1ccc(-c2sc(-c3ccc(-c4ccc(C(=O)O)s4)s3)cc2CC(=O)O)s1 [h-FTAA, hepta Formic Thiophene Acetic Acid]
- fluorescent signal from the LCO on biofilm versus phase contrast microscopy [1]: coincides with visible bacteria aggregates
- fluorescent signal with cellulose+ curli− ΔcsgA biofilm ([1]; 2 μg/ml, ΔcsgA, confocal microscopy): gave a fluorescent signal
- real time analysis of biofilm formation [2]: enables real time analysis of biofilm formation

Compound: Cl.Cl.c1csc(-c2cc(CCn3ccnc3)c(-c3ccc(-c4sc(-c5cccs5)cc4CCn4ccnc4)s3)s2)c1 [pHTIm, penta Hydrogen Thiophene Imidazole]
- RFU change (Correlation analysis) ([3]; Cellulose 10-[…]): Increase
- RFU change (Signal deviation with increasing [Carbohydrate]) ([3]; Cellulose 10-[…]): Increase
- λmax change ([3]; Cellulose 10-[…]): Redshift
- carbohydrate can be detected and/or differentiated by the LCO ([3]; Cellulose): can be detected and/or differentiated
- RFU change (Correlation analysis) ([3]; Chitin 10-[…]): Decreases
- RFU change (Signal deviation with increasing [Carbohydrate]) ([3]; Chitin 10-[…]): Decrease
- λmax change ([3]; Chitin 10-[…]): Redshift
- carbohydrate can be detected and/or differentiated by the LCO ([3]; Chitin): can be detected and/or differentiated
- Gradient Parameters (gradient of regression line) ([3]; cellulose concentration vs RFU): 3063 ± 564.3
- Linear relationship ([3]; cellulose concentration vs RFU): Significant
- Quality of Gradient ([3]; cellulose concentration vs RFU): Positive
- Gradient Parameters (gradient of regression line) ([3]; chitin concentration vs RFU): −383.6 ± 71.4
- Linear relationship ([3]; chitin concentration vs RFU): Significant
- Quality of Gradient ([3]; chitin concentration vs RFU): Negative
- Sensitivity ([3]; to cellulose): Yes
- Sensitivity ([3]; to chitin): Yes
- Sensitivity ([3]; to β-1,3-glucan): No
- RFU change (Correlation analysis) ([3]; β-1,3-glucan 10-[…]): Decrease
- RFU change (Signal deviation with increasing [Carbohydrate]) ([3]; β-1,3-glucan 10-[…]): Decrease
- λmax change ([3]; β-1,3-glucan 10-[…]): Redshift
- Gradient Parameters (gradient of regression line) [3, 10]: −177.1 ± 89.6
- Quality of Gradient [3, 10]: Horizontal
- RFU change (Correlation analysis) ([4]; Sodium alginate 5-0.019 mg/ml, 3 μM probe, probe-specific excitation λ, emission 545 nm): Increases
- RFU change (Signal deviation with increasing [Carbohydrate]) [4, 11]: Increases
- λmax change [4, 11]: Redshift
- carbohydrate can be detected and/or differentiated by the LCO ([4]; Sodium alginate, conclusion from change in signal magnitude and/or shift in λmax): can be detected and/or differentiated
- Gradient Parameters (gradient of regression line) [4, 12]: 266 ± 29.2
- Linear relationship [4, 12]: Significant
- Quality of Gradient [4, 12]: Positive
- Sensitivity ([4]; to sodium alginate): Yes
- RFU change (Correlation analysis) ([5]; Glucose 5-0.019 mg/ml, 3 μM probe, probe-specific excitation λ, emission 545 nm): Unclear
- RFU change (Signal deviation with increasing [Carbohydrate]) ([5]; Glucose 5-0.019 mg/ml, 3 μM probe, spectral analysis, Excitation 300-500, Emission 545): Unclear
- Gradient Parameters (gradient of regression line) [5, 13]: 10.9 ± 25.5
- Quality of Gradient [5, 13]: Horizontal
- Sensitivity ([5]; to glucose): No
- RFU change (Correlation analysis) ([6]; Amylose 5-0.019 mg/ml, 3 μM probe): Decreases
- RFU change (Signal deviation with increasing [Carbohydrate]) ([6]; Amylose 5-0.019 mg/ml, 3 μM probe, spectral analysis, Excitation 300-500, Emission 545): Decreases
- carbohydrate can be detected and/or differentiated by the LCO ([6]; Amylose, conclusion from change in signal magnitude and/or shift in λmax): can be detected and/or differentiated
- RFU change (Correlation analysis) ([6]; Cellulobiose 5-0.019 mg/ml, 3 μM probe): Unclear
- RFU change (Signal deviation with increasing [Carbohydrate]) [6, 14]: Increases
- λmax change [6, 14]: No change
- Gradient Parameters (gradient of regression line) [6, 15]: −655 ± 110
- Linear relationship [6, 15]: Significant
- Quality of Gradient [6, 15]: Negative
- Gradient Parameters (gradient of regression line) [6, 16]: 75.1 ± 61.5
- Quality of Gradient [6, 16]: Horizontal
- Sensitivity ([6]; to amylose): Yes
- Sensitivity ([6]; to cellulobiose): No
- RFU change (Correlation analysis) ([7]; Glycogen 5-0.019 mg/ml, 3 μM probe): Increases
- RFU change (Signal deviation with increasing [Carbohydrate]) [7, 17]: Increases
- λmax change [7, 17]: Redshift
- carbohydrate can be detected and/or differentiated by the LCO ([7]; Glycogen): can be detected and/or differentiated
- RFU change (Correlation analysis) ([7]; Heparin 5-0.019 mg/ml, 3 μM probe): Increases
- RFU change (Signal deviation with increasing [Carbohydrate]) ([7]; Heparin 5-0.019 mg/ml, 3 μM probe, spectral analysis, Excitation 300-500, Emission 545): Unclear
- carbohydrate can be detected and/or differentiated by the LCO ([7]; Heparin): can be detected and/or differentiated
- Gradient Parameters (gradient of regression line) ([7]; glycogen concentration vs RFU): 835.8 ± 26.6
- Linear relationship ([7]; glycogen concentration vs RFU): Significant
- Quality of Gradient ([7]; glycogen concentration vs RFU): Positive
- Gradient Parameters (gradient of regression line) ([7]; heparin concentration vs RFU): 96.3 ± 36.8
- Linear relationship ([7]; heparin concentration vs RFU): Significant
- Quality of Gradient ([7]; heparin concentration vs RFU): Positive
- Sensitivity ([7]; to glycogen): Yes
- Sensitivity ([7]; to heparin): Yes
- RFU change (Correlation analysis) ([8]; Chondroitin Sulfate A 5-0.019 mg/ml, 3 μM probe, probe-specific excitation λ, emission 545 nm): Increases
- RFU change (Signal deviation with increasing [Carbohydrate]) [8, 18]: Increases
- λmax change [8, 18]: Redshift
- Gradient Parameters (gradient of regression line) [8, 19]: 1177 ± 203.6
- Linear relationship [8, 19]: Significant
- Quality of Gradient [8, 19]: Positive
- carbohydrate can be detected and/or differentiated by the LCO ([8]; Chondroitin sulfate A, conclusion from change in signal magnitude and/or shift in λmax): can be detected and/or differentiated
- Sensitivity ([8]; to Chondroitin Sulfate A): Yes

Compound: hepta Hydrogen Thiophene Acetic Acid [h-HTAA]
- fluorescent signal from the LCO on biofilm versus phase contrast microscopy [1]: coincides with visible bacteria aggregates
- differentiation of biofilm morphologies of isogenic mutants by excitation spectra [9]: did not differentiate biofilm morphologies
